# Test system: plaque biofilm grown from fresh pooled human saliva
# Experiment: in vitro plaque glycolysis model (iPGRM): acid production and acid inhibition
# Assay type: cell-based, plaque microorganisms from human saliva
# Settings: TABLE 2, 3-day biofilm
# Procedure: Acid production and acid inhibition were determined with the in vitro plaque glycolysis model (iPGRM). The purpose of this technique is to provide a simple and quick method for determining if compounds have an influence on the metabolic pathways that plaque microorganisms utilize to produce toxins that adversely affect gingival health. It is also useful to determine if compounds have an influence on the metabolic pathways that plaque microorganisms utilize to produce plaque acids that adversely affect teeth.
# The in vitro plaque glycolysis model (iPGRM) is a technique in which plaque is grown from human saliva and treated with various agents to determine anti-glycolytic activity of treatments. When bacteria convert sugar into energy with the help of enzymes, acids are formed. These acids demineralize and damage the dental enamel. […]
# […] The pH of the media solutions was then measured to determine the amount of glycolysis inhibition relative to a negative control.
# On Day 1, new glass rods (5 mm×90 mm) were polished approximately 25 mm from the un-tapered end on a lathe with silicon carbide paper of 240, 320, 400, and 600 grit used sequentially. […] After polishing, rods were stored until ready to run test. […]
smiles,measurement,setting,value
"[H]/N=C(\N/C(=N/[H])NCCCCCCNC(=N)NC(=N)Nc1ccc(Cl)cc1)Nc1ccc(Cl)cc1 [1% Chlorhexidine, Chlorhexidine]",Acid Production (ΔpH) Mean,"2 min treatment with dentifrice slurry or diluted treatment in water (1:5), ΔpH vs blank vials",0.30 ΔpH
same,Mean Acid Inhibition (%) Mean,relative to negative control Crest Cavity Protection,80.77%
